Ends that are not written are not given here.
Key:
gastric emptying = assay: Gastric emptying in HSD rats (3H-3-O-methyl-glucose gavage); assay type: in vivo; settings: for effect on gastric emptying: 40 minutes
Procedure: Male HSD rats, 180-215 g, were housed with a 12:12 hour light:dark cycle and fasted for 20 hrs (overnight). […] At t=1 min, a solution of 1 mL sterile water containing 5 μCi of ^3H-3-O-methyl-glucose was gavaged by oropharyngeal tube to conscious rats. Blood samples (10 μl) were collected 40 min after gavage and assayed for counts per minute (CPM) in plasma. To eliminate pain during tail vein sampling, 2% Lidocaine (0.1 ml) was injected 3-4 cm from the end of the tail (Gedulin, Jodka et al. Gastroenterology 108: […], 1995). Effects of the test compound were expressed as percent change relative to control, which was calculated as -100*(1-(mean value test rats/mean value controls)). Relative activity was defined as significant if p<0.05 as determined by ANOVA. Where a significant difference existed, test means were compared to the control mean using Dunnett's test (Prism v2.01, GraphPad Software Inc., San Diego, Calif.).

food intake = assay: Food intake in overnight-fasted NIH/SW mice; assay type: in vivo; settings: for effect on food intake: 60 min
Procedure: Female NIH/Swiss mice (8-12 weeks old) were group housed with a 12:12 hour light:dark cycle with lights on at 0600. Water and a standard pelleted mouse chow diet were available ad libitum, except as noted. Animals were fasted and housed individually starting at approximately 1500 hrs, 1 day prior to experiment. The morning of the experiment (approx. 0630 hrs), all animals were weighed and divided into experimental groups so as to give the most similar weight distribution between groups. In a typical study, n=10 for the control group and at least 5 for each treatment group. At time=0 min, all animals were given an intraperitoneal injection of vehicle or compound in a volume of 5 ml/kg and immediately given a pre-weighed amount (10-15 g) of the standard chow. […] Significant treatment effects were identified by ANOVA (p<0.05). Where a significant difference existed, test means were compared to the control mean using Dunnett's test (Prism v2.01, GraphPad Software Inc., San Diego, Calif.).

[1] = given peripherally, dose not given

Substance	effect on gastric emptying (gastric emptying; 200 μg/kg intraperitoneal)	effect on food intake (food intake; 200 μg/kg intraperitoneal)	effect on gastric emptying (gastric emptying; 500 μg/kg intraperitoneal)	effect on food intake (food intake; 100 μg/kg intraperitoneal)	effect on gastric emptying (summary) (gastric emptying; [1])	effect on food intake (food intake; 500 μg/kg intraperitoneal)	effect on food intake (summary) (food intake; [1])
Ac-PYY[22-36] (Ac-ASLRHYLNLVTRQRY; ends and bridges not checked; listed as Homo sapiens)	inactive	inactive	–	–	–	–	–
NPY[3-36]	–	–	inactive	inactive	–	–	–
Neuropeptide Y [NPY]	–	–	inactive	inactive	completely inactive	trend toward activity	modest decrease in food intake
